Measured values as given in patent US20260265220A1, “GALPHA12 INHIBITORS AND METHODS USING SAME” (RUTGERS, THE STATE UNIVERSITY OF NEW JERSEY, priority 2022, published 2026).
“Also recorded” adds a separate entry of the source.

Key:
[1] = target: T1, Gα12 (Homo sapiens, UniProt Q03113); experiment: Gα12 luciferase reporter assay in hTERT-SRE immortalized airway smooth muscle cells, carbachol stimulated; type: cell-based; conditions: carbachol (CCh) stimulated, dose response
T1 sequence (Q03113 1-381): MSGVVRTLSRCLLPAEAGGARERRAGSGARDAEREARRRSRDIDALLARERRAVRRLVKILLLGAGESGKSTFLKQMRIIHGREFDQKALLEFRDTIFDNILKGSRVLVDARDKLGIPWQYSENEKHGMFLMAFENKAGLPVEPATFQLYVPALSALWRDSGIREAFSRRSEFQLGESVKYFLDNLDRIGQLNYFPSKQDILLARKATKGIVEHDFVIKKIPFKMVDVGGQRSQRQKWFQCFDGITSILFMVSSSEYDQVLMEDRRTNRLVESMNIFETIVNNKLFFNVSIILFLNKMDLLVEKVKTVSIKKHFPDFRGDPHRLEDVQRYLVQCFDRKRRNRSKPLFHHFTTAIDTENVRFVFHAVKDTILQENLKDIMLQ
Source text: FIGS. 1A-1C show an experimental approach to the identification of Gα12 modulators using hTERT-SRE human telomerase reverse transcriptase immortalized airway smooth muscle cells. FIG. 1A: provides a schematic representation of Gα12-activated luciferase reporter. […] FIG. 1C: provides a detailed schematic showing the downstream effects of Gα12/13 activation and/or inhibition, wherein serum response element (SRE) may be detected by a luciferase assay, and pAKT and pMLC may be detected by Western blotting. A Gα12 luciferase reporter assay was used to evaluate the potential of analogues of compound 1 as bronchodilators (FIGS. 2A-2C), wherein the assay utilized hTERT-SRE telomerase reverse transcriptase immortalized airway smooth muscle cells. In certain embodiments, the Gα12 pathway is activated with carbachol (CCh), resulting in downstream transcription of a […]/luciferase fusion protein (FIG. 1A), and consequently, a fluorescence signal (FIG. 1B). In certain embodiments, detection of a decrease in observed fluorescent signal indicates inhibition of Gα12. Further, activation of the Gα12 pathway results in elevated levels of phosphorylated AKT (pAKT) and MLC (pMLC) (FIG. 1C). In certain embodiments, detection of a decrease in pAKT and/or pMLC indicates inhibition of Gα12.

[2] = tested on: MLC phosphorylation (pMLC); experiment: Immunoblot analysis of myosin light chain phosphorylation (pMLC) in airway smooth muscle cells; type: cell-based, human; conditions: for agonist specificity of the effect on pMLC activation: carbachol versus histamine; for potency and efficacy on carbachol-induced pMLC activation: relative to the parent compound 1 (BDF)
Procedure: (§1) Compounds 1-3 were evaluated for inhibition of AKT and MLC phosphorylation. As described elsewhere herein, phosphorylation of AKT and/or MLC can occur with activation of the Gα12 pathway. Accordingly, in certain embodiments, detection of a decrease in pAKT and/or pMLC indicates inhibition of Gα12.
(§2) The immunoblot analysis of phosphorylation of myosin light chain (pMLC) was used as a surrogate for ASM contraction. In parallel, phosphorylation of AKT was analogously assessed. AKT is a downstream substrate for phosphoinositide 3-kinase (PI3K) activity, can modulate the activation of the Gα12 pathway in primary human airway smooth muscle cells. These cells are the pivotal cells regulating bronchomotor tone in asthma and chronic obstructive pulmonary disease (COPD) which is emphysema or chronic bronchitis.
(§3) The analogues described herein were further assessed for potency and efficacy in inhibiting AKT and pMLC phosphorylation induced by contractile agonists, carbachol, or histamine. These contractile agonists are pivotal in causing airway smooth muscle contraction and airway obstruction in asthma and COPD.

[3] = tested on: AKT phosphorylation (pAKT); experiment: Immunoblot analysis of AKT phosphorylation (pAKT) in airway smooth muscle cells; type: cell-based, human
Procedure: as §1, §2, §3

SMILES	modulation of Gα12 luciferase reporter signal (agonist/antagonist) [1]	agonist specificity of the effect on pMLC activation [2]	potency and efficacy on carbachol-induced pMLC activation [2]	pMLC ([2]; compound at 10 μM (FIGS. 4C-4D))	pMLC ([2]; compound at 100 μM (FIGS. 4C-4D))	pAKT ([3]; compound at 10 μM (FIGS. 4A-4B))	pAKT ([3]; compound at 100 μM (FIGS. 4A-4B))	agonist-induced pMLC activation ([2]; contractile agonists carbachol or histamine, FIGS. 6A-6B)	inhibition of AKT phosphorylation (pAKT) by agonists ([3]; contractile agonists carbachol or histamine)
CC(C)(NC(=O)Cc1ccccc1F)C(=O)N1CCOCC(Cc2cccc3ccncc23)C1 (stereo not shown) [BDH, 2-(2-fluorophenyl)-N-(1-(6-(isoquinolin-8-ylmethyl)-1,4-oxazepan-4-yl)-2-methyl-1-oxopropan-2-yl)acetamide, reference compound]	dose-dependent activation	–	–	–	–	–	–	–	–
Cc1ccc(Cc2ccc(C3CN(C(=O)c4cnc(C)cn4)CCO3)nc2)cc1 (stereo not shown) [Compound 2, (2-(5-(4-methylbenzyl)pyridin-2-yl)morpholino)(5-methylpyrazin-2-yl)methanone]	Gα12 antagonists	specific for carbachol rather than histamine	improved potency and efficacy	–	–	–	–	–	–
CCN1CCC(CC(=O)N2CCOC(c3ccc(-c4cccc(OC)c4)cn3)C2)CC1 (stereo not shown) [Compound 3, 2-(1-ethylpiperidin-4-yl)-1-(2-(5-(3-methoxyphenyl)pyridin-2-yl)morpholino)ethan-1-one]	Gα12 antagonists	specific for carbachol rather than histamine	improved potency and efficacy	decrease; also recorded: significantly decreased	decrease; also recorded: significantly decreased	decrease; also recorded: significantly decreased	decrease; also recorded: significantly decreased	–	–
FC(F)(F)c1cccc(Cc2ccc(C3CN(Cc4cccnc4)CCO3)nc2)c1 (stereo not shown) [Compound 5, 4-(pyridin-3-ylmethyl)-2-(5-(3-(trifluoromethyl)benzyl)pyridin-2-yl)morpholine]	–	–	–	–	–	–	–	inactive	inactive
